Holding throughout (assay type): functional
What all share (settings): read-out: GI

Assay [1] concerns Zea mays. Put plainly: Post emergence phyototoxic activity against Zea mays (maize) plants assessed as inhibition of plant growth at 125 g ai/ha measured 22 to 37 days after compound application under greenhouse conditions.
Assay [2] relates to Triticum aestivum. Put plainly: Post emergence phyototoxic activity against Triticum aestivum (wheat) plants assessed as inhibition of plant growth at 125 g ai/ha measured 22 to 37 days after compound application under greenhouse conditions.
Assay [3] deals with Echinochloa crus-galli. Put plainly: Post emergence herbicidal activity against Echinochloa crus-galli (barnyard grass) assessed as inhibition of weed growth at 125 g ai/ha measured 22 to 37 days after compound application under greenhouse conditions.
Assay [4] has as its system Amaranthus viridis. The assay is described as follows: Post-emergence herbicidal activity against Amaranthus viridis assessed as inhibition of weed growth at 125 g ai/ha measured 22 to 37 days after compound application under greenhouse conditions.
The test system of assay [5] is Sida spinosa. The assay is described as follows: Post-emergence herbicidal activity against Sida spinosa assessed as inhibition of weed growth at 125 g ai/ha measured 22 to 37 days after compound application under greenhouse conditions.
The subject of assay [6] is Ipomoea purpurea. The assay is described as follows: Post emergence herbicidal activity against Ipomoea purpurea (common morning-glory) assessed as inhibition of weed growth at 125 g ai/ha measured 22 to 37 days after compound application under greenhouse conditions.
Assay [7] concerns Persicaria longiseta. The assay is described as follows: Post-emergence herbicidal activity against Persicaria longiseta assessed as inhibition of weed growth at 125 g ai/ha measured 22 to 37 days after compound application under greenhouse conditions.
The subject of assay [8] is Xanthium strumarium. The assay is described as follows: Post emergence herbicidal activity against Xanthium strumarium (cocklebur) assessed as inhibition of weed growth at 125 g ai/ha measured 22 to 37 days after compound application under greenhouse conditions.

As to `CCNC(=O)c1cccnc1S(=O)(=O)NC(=O)Nc1nc(OC)cc(OC)n1`, the inhibition of growth at 125 g/ha in assay [1] is 0%.

Turning to `COC(=O)CNC(=O)c1cccnc1S(=O)(=O)NC(=O)Nc1nc(OC)cc(OC)n1`, the inhibition of growth at 125 g/ha in assay [2], in assay [1], in assay [3], in assay [4], in assay [5] and in assay [6] was 0% each time.

On to `CCCCNC(=O)c1cccnc1S(=O)(=O)NC(=O)Nc1nc(OC)cc(OC)n1`, for which the inhibition of growth at 125 g/ha in assay [1] is 0%.

As for `COc1nc(C)nc(NC(=O)NS(=O)(=O)c2ncccc2C(=O)N(C)C)n1`, the inhibition of growth at 125 g/ha in assay [2], in assay [1], in assay [3], in assay [5] and in assay [6] was 0% throughout.

As to `CNC(=O)c1cccnc1S(=O)(=O)NC(=O)Nc1nc(OC)cc(OC)n1`, the inhibition of growth at 125 g/ha in assay [1] turned out to be 0%; in assay [7], 100%; in assay [3], 100%; in assay [4], 100%; in assay [8], 100%.

In the case of `COC(=O)N(C)C(=O)c1cccnc1S(=O)(=O)NC(=O)Nc1nc(OC)cc(OC)n1`, the inhibition of growth at 125 g/ha in assay [1] was 0%.

In the case of `COc1cc(OC)nc(NC(=O)NS(=O)(=O)c2ncccc2C(=O)N(C)OC)n1`, the inhibition of growth at 125 g/ha in assay [2] came to 100%; in assay [1], 0%; in assay [3] it was 100%; in assay [4], 100%.

With `CSc1cc(SC)nc(NC(=O)NS(=O)(=O)c2ncccc2C(=O)N(C)C)n1`, the inhibition of growth at 125 g/ha in assay [1], in assay [7], in assay [3], in assay [4], in assay [5] and in assay [8] was 0% each time.

On to `COc1cc(OC)nc(NC(=O)NS(=O)(=O)c2ncccc2C(=O)N(C)CC(F)(F)F)n1`, for which the inhibition of growth at 125 g/ha in assay [1] stood at 0%.

Consider `COc1cc(OC)nc(NC(=O)NS(=O)(=O)c2ncccc2C(=O)N(C)c2ccccc2)n1`, for which the inhibition of growth at 125 g/ha in assay [1] turned out to be 0%.

Regarding `COc1cc(C)nc(NC(=O)NS(=O)(=O)c2ncccc2C(=O)N(C)C)n1`, the inhibition of growth at 125 g/ha in assay [1] worked out at 0%.

For `C=CCNC(=O)c1cccnc1S(=O)(=O)NC(=O)Nc1nc(OC)cc(OC)n1`, in assay [1], the inhibition of growth at 125 g/ha was determined as 0%.

Take `COc1cc(OC)nc(NC(=O)NS(=O)(=O)c2ncccc2C(=O)N(C)c2ccc(Cl)cc2)n1`: the inhibition of growth at 125 g/ha in assay [1] is 0%; in assay [8], 100%.

For the compound `CCC(=O)N(CC)C(=O)c1cccnc1S(=O)(=O)NC(=O)Nc1nc(OC)cc(OC)n1`, the inhibition of growth at 125 g/ha in assay [1] amounted to 0%; in assay [4], 100%.

In the case of `COc1cc(SC)nc(NC(=O)NS(=O)(=O)c2ncccc2C(=O)N(C)C)n1`, the inhibition of growth at 125 g/ha stood at 0% in assay [1] and 100% in assay [4].

For the compound `COc1cc(OC)nc(NC(=O)NS(=O)(=O)c2ncccc2C(=O)N2CCCCC2)n1`, the inhibition of growth at 125 g/ha in assay [1] is 0%.

In the case of `COc1cc(OC)nc(NC(=O)NS(=O)(=O)c2ncccc2C(=O)N2CCOCC2)n1`, the inhibition of growth at 125 g/ha in assay [2] and in assay [1] was 0% each time.

As for `CN(C)C(=O)c1cccnc1S(=O)(=O)NC(=O)Nc1nc(OC(F)F)cc(OC(F)F)n1`, the inhibition of growth at 125 g/ha in assay [2], in assay [7], in assay [5] and in assay [8] was 0% throughout.

Regarding `COc1cc(OC)nc(NC(=O)NS(=O)(=O)c2ncccc2C(=O)N(C)c2ccc(F)cc2F)n1`, the inhibition of growth at 125 g/ha in assay [2] was found to be 100%; in assay [5] it was 0%.

On to `COc1cc(Cl)nc(NC(=O)NS(=O)(=O)c2ncccc2C(=O)N(C)C)n1`, for which the inhibition of growth at 125 g/ha in assay [1] and in assay [5] was 0% throughout.

Take `COc1cc(OC(F)F)nc(NC(=O)NS(=O)(=O)c2ncccc2C(=O)N(C)C)n1`: the inhibition of growth at 125 g/ha in assay [1] was 0%.

As for `C=C(C)NC(=O)c1cccnc1S(=O)(=O)NC(=O)Nc1nc(OC)cc(OC)n1`, the inhibition of growth at 125 g/ha in assay [1] is 0%.

In the case of `CCN(C)C(=O)c1cccnc1S(=O)(=O)NC(=O)Nc1nc(OC)cc(OC)n1`, the inhibition of growth at 125 g/ha was determined as 0% in assay [1], 100% in assay [3] and 100% in assay [8].

`Cc1cc(C)nc(NC(=O)NS(=O)(=O)c2ncccc2C(=O)N(C)C)n1`: the inhibition of growth at 125 g/ha in assay [2], in assay [1], in assay [7], in assay [3], in assay [5] and in assay [6] was 0% throughout.

In the case of `COc1cc(OC)nc(NC(=O)NS(=O)(=O)c2ncccc2C(=O)NCC(F)(F)F)n1`, in assay [1], the inhibition of growth at 125 g/ha was 0%.

In the case of `CCOc1cc(OC)nc(NC(=O)NS(=O)(=O)c2ncccc2C(=O)N(C)C)n1`, the inhibition of growth at 125 g/ha in assay [1] is 0%; in assay [4], 100%.

`COc1nc(NC(=O)NS(=O)(=O)c2ncccc2C(=O)N(C)C)nc(OC)n1`: the inhibition of growth at 125 g/ha in assay [2], in assay [1], in assay [7], in assay [3], in assay [4] and in assay [5] was 0% in each case. Also, the inhibition of growth at 125 g/ha in assay [6] worked out at 0%.

Regarding `COc1cc(OC)nc(NC(=O)NS(=O)(=O)c2ncccc2C(=O)NC2CC2)n1`, the figures for the inhibition of growth at 125 g/ha in assay [1] and in assay [3] were 0% and 100%, respectively.
